# Experimental data reported in patent US20110190269A1, “GAMMA SECRETASE MODULATORS” (priority 2010, published 2011).
# Tested on: γ-secretase
# Test: Cellular γ-secretase assay (inhibition of Aβ42 secretion)
# Format: cell-based
# Details: human neuroglioma H4 cells overexpressing human APP, 22 hrs incubation
# Method: Human neuroglioma H4 cells overexpressing human APP were plated at 30,000 cells/well/[…] in 96-well plates in IMDM media containing 10% FCS, […] Hygromycin B and incubated for 2 h at 37° C., 5% CO2 prior to adding test compounds.
# Compounds for testing were dissolved in 100% Me2SO yielding in a 10 mM stock solution. Typically […] of these solutions were further diluted in 1000 μl of IMDM media (w/o FCS). Subsequent 1:1 dilutions gave a ten point dose response curve. 100 μl of each dilution was added to the cells in 96-well plates. Appropriate controls using vehicle only and reference compound were applied to this assay. The final concentration of Me2S0 was 0.4%.
# After incubation for 22 hrs at 37° C., 5% CO2, 50 μl supernatant was transferred into round-bottom 96-well polypropylene plates for detection of Aβ42. 50 μl assay buffer (50 mM Tris/Cl, pH 7.4, 60 mM NaCl, 0.5% BSA, 1% TWEEN 20) was added to the wells followed by the addition of 100 μl of detection antibody (ruthenylated BAP15 0.0625 μg/ml in assay buffer). 50 μl of a premix of capture antibody (biotinylated 6E10 antibody, 1 μg/ml) and Steptavidin-coated magnetic beads (Dynal M-280, 0.125 mg/ml) were preincubated for 1 hr at room temperature before adding the assay plates. Assay plates were incubated on a shaker for 3 hrs at room temperature and finally read in the Bioveris M8 Analyser according to the manufacturer's instructions (Bioveris).
# IC50 values for inhibition of Aβ42 secretion were calculated by nonlinear regression fit analysis using XLfit 4.0 software (IDBS).
row,Compound,EC50 [nM]
1,"COc1cc(Nc2nc3cc(C)cc(C)n3n2)ccc1-n1cnc(C)c1 [Example 14, (5,7-Dimethyl-[1,2,4]triazolo[1,5-a]pyridin-2-yl)-[3-methoxy-4-(4-methyl-imidazol-1-yl)-phenyl]-amine]",679
2,"COc1cc(Nc2nc3nc(C)cc(C(C)(C)C)n3n2)ccc1-n1cnc(C)c1 [Example 15, (7-tert-Butyl-5-methyl-[1,2,4]triazolo[1,5-a]pyrimidin-2-yl)-[3-methoxy-4-(4-methyl-imidazol-1-yl)-phenyl]-amine acetate]",572
3,"COC(=O)c1cc(-c2cccc(OC(F)F)c2)n2nc(Nc3ccc(-n4cnc(C)c4)c(OC)c3)nc2n1 [Example 19, 7-(3-Difluoromethoxy-phenyl)-2-[3-methoxy-4-(4-methyl-imidazol-1-yl)-phenylamino]-[1,2,4]triazolo[1,5-a]pyrimidine-5-carboxylic acid methyl ester acetate]",953
4,"COc1cc(Nc2nc3nc(C(F)(F)F)cc(-c4ccco4)n3n2)ccc1-n1cnc(C)c1 [Example 24, (7-Furan-2-yl-5-trifluoromethyl-[1,2,4]triazolo[1,5-a]pyrimidin-2-yl)-[3-methoxy-4-(4-methyl-imidazol-1-yl)-phenyl]-amine]",592
5,"COc1cc(Nc2nc3nc(C(C)C)cc(C(C)C)n3n2)ccc1-n1cnc(C)c1 [Example 25, (5,7-Diisopropyl-[1,2,4]triazolo[1,5-a]pyrimidin-2-yl)-[3-methoxy-4-(4-methyl-imidazol-1-yl)-phenyl]-amine acetate]",601
6,"COCc1cnc(-c2ccccc2)n2nc(Nc3ccc(-n4cnc(C)c4)c(OC)c3)nc12 [Example 27, [3-Methoxy-4-(4-methyl-imidazol-1-yl)-phenyl]-(8-methoxymethyl-5-phenyl-[1,2,4]triazolo[1,5-c]pyrimidin-2-yl)-amine]",742
7,"COCc1cnc(C2CCCCC2)n2nc(Nc3ccc(-n4cnc(C)c4)c(OC)c3)nc12 [Example 28, (5-Cyclohexyl-8-methoxymethyl-[1,2,4]triazolo[1,5-c]pyrimidin-2-yl)-[3-methoxy-4-(4-methyl-imidazol-1-yl)-phenyl]-amine]",1490
8,"COc1cc(Nc2nc3c(CN4CCOCC4)cnc(-c4ccccc4)n3n2)ccc1-n1cnc(C)c1 [Example 29, [3-Methoxy-4-(4-methyl-imidazol-1-yl)-phenyl]-(8-morpholin-4-ylmethyl-5-phenyl-[1,2,4]triazolo[1,5-c]pyrimidin-2-yl)-amine]",1270
9,"COc1cc(Nc2nc3cccc(N4CCCCCC4)n3n2)ccc1-n1cnc(C)c1 [Example 31, (5-Azepan-1-yl-[1,2,4]triazolo[1,5-a]pyridin-2-yl)-[3-methoxy-4-(4-methyl-imidazol-1-yl)-phenyl]-amine]",587
10,"CCCc1ncc(CN2CCOCC2)c2nc(Nc3ccc(-n4cnc(C)c4)c(OC)c3)nn12 [Example 32, [3-Methoxy-4-(4-methyl-imidazol-1-yl)-phenyl]-(8-morpholin-4-ylmethyl-5-propyl-[1,2,4]triazolo[1,5-c]pyrimidin-2-yl)-amine]",864
11,"CCN(CC)c1cccc2nc(Nc3ccc(-n4cnc(C)c4)c(OC)c3)nn12 [Example 34, N5,N5-Diethyl-N2-[3-methoxy-4-(4-methyl-imidazol-1-yl)-phenyl]-[1,2,4]triazolo[1,5-a]pyridine-2,5-diamine]",640
12,"COc1cc(Nc2nc3nccc(-c4ccc(C#N)cc4)n3n2)ccc1-n1cnc(C)c1 [Example 35, 4-{2-[3-Methoxy-4-(4-methyl-imidazol-1-yl)-phenylamino]-[1,2,4]triazolo[1,5-a]pyrimidin-7-yl}-benzonitrile]",5930
13,"COc1cc(Nc2nc3nccc(-c4ccc(C(F)(F)F)cc4)n3n2)ccc1-n1cnc(C)c1 [Example 36, [3-Methoxy-4-(4-methyl-imidazol-1-yl)-phenyl]-[7-(4-trifluoromethyl-phenyl)-[1,2,4]triazolo[1,5-a]pyrimidin-2-yl]-amine]",573
14,"COc1cc(Nc2nc3ncc(C#N)c(-c4ccccc4Cl)n3n2)ccc1-n1cnc(C)c1 [Example 38, 7-(2-Chloro-phenyl)-2-[3-methoxy-4-(4-methyl-imidazol-1-yl)-phenylamino]-[1,2,4]triazolo[1,5-a]pyrimidine-6-carbonitrile]",578
15,"COc1cc(Nc2nc3nc(C(F)(F)F)cc(-c4cnccn4)n3n2)ccc1-n1cnc(C)c1 [Example 41, [3-Methoxy-4-(4-methyl-imidazol-1-yl)-phenyl]-(7-pyrazin-2-yl-5-trifluoromethyl-[1,2,4]triazolo[1,5-a]pyrimidin-2-yl)-amine]",4310
16,"COc1ccc2nc(Nc3ccc(-n4cnc(C)c4)c(OC)c3)nn2n1 [Example 42, [3-Methoxy-4-(4-methyl-imidazol-1-yl)-phenyl]-(6-methoxy-[1,2,4]triazolo[1,5-b]pyridazin-2-yl)-amine]",1320
17,"COc1cc(Nc2nc3c(OCc4ccccc4)cccn3n2)ccc1-n1cnc(C)c1 [Example 43, (8-Benzyloxy-[1,2,4]triazolo[1,5-a]pyridin-2-yl)-[3-methoxy-4-(4-methyl-imidazol-1-yl)-phenyl]-amine]",680

# Continued by falling EC50, values first:
row,EC50 [nM],Compound
1,556,"COc1cc(Nc2nc3cccc(N4CCCCC4)n3n2)ccc1-n1cnc(C)c1 [Example 33, [3-Methoxy-4-(4-methyl-imidazol-1-yl)-phenyl]-(5-piperidin-1-yl-[1,2,4]triazolo[1,5-a]pyridin-2-yl)-amine]"
2,417,"COc1cc(Nc2nc3ncc(C#N)c(-c4cccc(C)c4)n3n2)ccc1-n1cnc(C)c1 [Example 40, 2-[3-Methoxy-4-(4-methyl-imidazol-1-yl)-phenylamino]-7-m-tolyl-[1,2,4]triazolo[1,5-a]pyrimidine-6-carbonitrile]"
3,312,"COc1cc(Nc2nc3nc(C(F)(F)F)cc(C(F)(F)F)n3n2)ccc1-n1cnc(C)c1 [Example 26, (5,7-Bis-trifluoromethyl-[1,2,4]triazolo[1,5-a]pyrimidin-2-yl)-[3-methoxy-4-(4-methyl-imidazol-1-yl)-phenyl]-amine]"
4,285,"COc1cc(Nc2nc3cccc(C(F)(F)F)n3n2)ccc1-n1cnc(C)c1 [Example 17, [3-Methoxy-4-(4-methyl-imidazol-1-yl)-phenyl]-(5-trifluoromethyl-[1,2,4]triazolo[1,5-a]pyridin-2-yl)-amine]"
5,260,"COc1cc(Nc2nc3ncc(C#N)c(-c4ccccc4)n3n2)ccc1-n1cnc(C)c1 [Example 37, 2-[3-Methoxy-4-(4-methyl-imidazol-1-yl)-phenylamino]-7-phenyl-[1,2,4]triazolo[1,5-a]pyrimidine-6-carbonitrile]"
6,247,"COc1cc(Nc2nc3cccc(N4CCOCC4)n3n2)ccc1-n1cnc(C)c1 [Example 30, [3-Methoxy-4-(4-methyl-imidazol-1-yl)-phenyl]-(5-morpholin-4-yl-[1,2,4]triazolo[1,5-a]pyridin-2-yl)-amine]"
7,201,"COc1cc(Nc2nc3nc4c(c(-c5ccccc5)n3n2)CCCC4)ccc1-n1cnc(C)c1 [Example 21, [3-Methoxy-4-(4-methyl-imidazol-1-yl)-phenyl]-(9-phenyl-5,6,7,8-tetrahydro-[1,2,4]triazolo[5,1-b]quinazolin-2-yl)-amine acetate]"
8,197,"CCCc1cccc2nc(Nc3ccc(-n4cnc(C)c4)c(OC)c3)nn12 [Example 16, [3-Methoxy-4-(4-methyl-imidazol-1-yl)-phenyl]-(5-propyl-[1,2,4]triazolo[1,5-a]pyridin-2-yl)-amine]"
9,191,"COc1cc(Nc2nc3nccc(-c4ccc(OC(F)(F)F)cc4)n3n2)ccc1-n1cnc(C)c1 [Example 23, [3-Methoxy-4-(4-methyl-imidazol-1-yl)-phenyl]-[7-(4-trifluoromethoxy-phenyl)-[1,2,4]triazolo[1,5-a]pyrimidin-2-yl]-amine acetate]"
10,145,"COc1cc(Nc2nc3ncc(C#N)c(-c4ccc(Cl)cc4)n3n2)ccc1-n1cnc(C)c1 [Example 39, 7-(4-Chloro-phenyl)-2-[3-methoxy-4-(4-methyl-imidazol-1-yl)-phenylamino]-[1,2,4]triazolo[1,5-a]pyrimidine-6-carbonitrile]"
11,129,"COc1cc(Nc2nc3nc(C)cc(-c4ccccc4)n3n2)ccc1-n1cnc(C)c1 [Example 18, [3-Methoxy-4-(4-methyl-imidazol-1-yl)-phenyl]-(5-methyl-7-phenyl-[1,2,4]triazolo[1,5-a]pyrimidin-2-yl)-amine acetate]"
12,107,"COc1cc(Nc2nc3nc(C(F)(F)F)cc(-c4ccc(Cl)cc4)n3n2)ccc1-n1cnc(C)c1 [Example 20, [7-(4-Chloro-phenyl)-5-trifluoromethyl-[1,2,4]triazolo[1,5-a]pyrimidin-2-yl]-[3-methoxy-4-(4-methyl-imidazol-1-yl)-phenyl]-amine acetate]"
13,74,"COc1cc(Nc2nc3c(OC)ccc(-c4ccc(F)cc4)n3n2)ccc1-n1cnc(C)c1 [Example 22, [5-(4-Fluoro-phenyl)-8-methoxy-[1,2,4]triazolo[1,5-a]pyridin-2-yl]-[3-methoxy-4-(4-methyl-imidazol-1-yl)-phenyl]-amine]"
